Results reported in paper PMC7405012, “Detection of Chaetomium globosum, Ch. cochliodes and Ch. rectangulare during the Diversity Tracking of Mycotoxin-Producing Chaetomium-like Isolates Obtained in Buildings in Finland” (Toxins, 2020).
Read-outs that look alike come from different tables or passages of the source.

Columns and labels:
[1] = test system: Aspergillus calidoustus MH4; test: Resistance to biocides: conidial germination; type: cell-based; details: strain MH4, indoor Aspergillus calidoustus
Method: (§1) The toxicity of biocides and chemicals towards the indoor Chaetomium-like isolates and the reference indoor strains of the genera Aspergillus, Paecilomyces, Penicillium and Trichoderma was assessed in parallel with the six parameters presented in the Supplementary Materials: (1) germ tube assay (Figure S3); (2) estimation of turbidity (Figure S4); (3) visual emission of fluorescence (excitation at 360 nm); (4) visual resporulation of conidia; (5) inhibition of glucose consumption; and (6) resazurin reduction. All assays were performed in malt extract broth (12 g L^−1 malt extract, 7.2 µmol mL^−1 glucose, pH 5.5; Scharlab, Barcelona, Spain) in 96-well microtiter plates as described for the ICP assay.
(§2) The assays measuring inhibition of germination of conidia were done with spore suspensions of 1–2 × 10^6 fungal spores mL−^1. The tests were performed in malt extract broth (Oxoid, Hampshire United Kingdom) 12 g in 1 L, pH 5.5, glucose 7.1 mmol L^−1, and performed on microtiter plates as described by Bencsik et al. for the ICP assay. The germ tube germination is visualized in Figure S3, and the tests estimating turbidity and emission of fluorescence provoked by the germinated and metabolically active conidia and C. globosum ascospores are visualized in Figures S4 and S5. Examples of the tests estimating fluorescence emission, turbidity and re-sporulation of conidia and ascospores are compared in Figure S5. The difference of the endpoints measured with the different assays was between […]. The resazurin reduction assays (Figure S6) were performed as described for the ICP assay, except that the microtiter plates were visually inspected for the change of the blue/violet color of resazurin (indicating inhibition of germination of the exposed conidia) to the […] (indicating metabolic activity and germination of the exposed conidia).
(§3) The formation of germ tubes was inspected by a phase-contrast microscope (Olympus CKX41, Tokyo, Japan; magnification 400×) and an image recording software (Cellsense® standard version 11.0.06, Olympus Soft Imaging Solutions GmbH, Münster, Germany, 2012) after 1 and 2 days of incubation at 28 °C. The EC50 corresponded to the inhibition of 50% (estimated as the concentration between EC0 and EC100) of the conidia compared to the ethanol control (the growth medium containing 1% of ethanol). The tests were run in triplicate and calibrated with triclosan (CAS: 3380-34-5; Sigma Chemical Co., St. Louis, MO, USA) giving a mean SD of ±<20%.

[2] = test system: Aspergillus versicolor SL/3; test: Resistance to biocides: conidial germination; type: cell-based; details: strain SL/3, Aspergillus versicolor
Method: as §1, §2, §3

Penicillium sp. Vaip/skk = test: Resistance to biocides: conidial germination; type: cell-based; details: strain Vaip/skk, indoor Penicillium sp.
Method: as §1, §2, §3

[3] = test system: Paecilomyces sp. Pec1/his; test: Resistance to biocides: conidial germination; type: cell-based; details: strain Pec1/his, indoor Paecilomyces sp.
Method: as §1, §2, §3

[4] = test system: Aspergillus section Nigri Asp21; test: Resistance to biocides: conidial germination; type: cell-based; details: strain Asp21, indoor Aspergillus section Nigri
Method: as §1, §2, §3

[5] = test system: Trichoderma citrinoviride SJ40; test: Resistance to biocides: conidial germination; type: cell-based; details: strain SJ40, indoor Trichoderma citrinoviride
Method: as §1, §2, §3

[6] = test system: Aspergillus section Flavi 7D; test: Resistance to biocides: conidial germination; type: cell-based; details: strain 7D, indoor Aspergillus section Flavi
Method: as §1, §2, §3

Penicillium sp. 35/skk = test: Resistance to biocides: conidial germination; type: cell-based; details: strain 35/skk, indoor Penicillium sp.
Method: as §1, §2, §3

[7] = test system: Indoor Trichoderma atroviride Tri7A/SKK; test: Resistance to biocides: conidial germination; type: cell-based; details: strain Tri7A/SKK
Method: as §1, §2, §3

[8] = test system: Indoor Trichoderma atroviride 14/AM; test: Resistance to biocides: conidial germination; type: cell-based; details: strain 14/AM
Method: as §1, §2, §3

[9] = test system: Aspergillus section Nigri Asp 32; test: Resistance to biocides: conidial germination; type: cell-based; details: strain Asp 32, indoor Aspergillus section Nigri
Method: as §1, §2, §3

Penicillium sp. 20b/skk = test: Resistance to biocides: conidial germination; type: cell-based; details: strain 20b/skk, indoor Penicillium sp.
Method: as §1, §2, §3

[10] = test system: Aspergillus westerdijkiae AW/KL; test: Resistance to biocides: conidial germination; type: cell-based; details: strain AW/KL
Method: as §1, §2, §3

[11] = test system: Paecilomyces variotii Pac1/kop; test: Resistance to biocides: conidial germination; type: cell-based; details: strain Pac1/kop, indoor Paecilomyces variotii
Method: as §1, §2, §3

Penicillium sp. HJ2 = test: Resistance to biocides: conidial germination; type: cell-based; details: strain HJ2, indoor Penicillium sp.
Method: as §1, §2, §3

Penicillium sp. 5/skk = test: Resistance to biocides: conidial germination; type: cell-based; details: strain 5/skk, indoor Penicillium sp.
Method: as §1, §2, §3

[12] = test system: Indoor Trichoderma atroviride Ke14; test: Resistance to biocides: conidial germination; type: cell-based; details: strain Ke14, indoor Trichoderma atroviride
Method: as §1, §2, §3

[13] = test system: Aspergillus versicolor Gas/226; test: Resistance to biocides: conidial germination; type: cell-based; details: strain Gas/226, Aspergillus versicolor
Method: as §1, §2, §3

[14] = test system: Aspergillus westerdijkiae PP2; test: Resistance to biocides: conidial germination; type: cell-based; details: strain PP2, Aspergillus westerdijkiae
Method: as §1, §2, §3

[15] = test system: Aspergillus westerdijkiae PP3; test: Resistance to biocides: conidial germination; type: cell-based; details: strain PP3, Aspergillus westerdijkiae
Method: as §1, §2, §3

[16] = test system: Paecilomyces variotii Pac2/kop; test: Resistance to biocides: conidial germination; type: cell-based; details: strain Pac2/kop, indoor Paecilomyces variotii
Method: as §1, §2, §3

[17] = test system: Aspergillus section Nigri Asp33b; test: Resistance to biocides: conidial germination; type: cell-based; details: strain Asp33b, indoor Aspergillus section Nigri
Method: as §1, §2, §3

[18] = test system: Indoor Trichoderma atroviride H1/226; test: Resistance to biocides: conidial germination; type: cell-based; details: strain H1/226, indoor Trichoderma atroviride
Method: as §1, §2, §3

Penicillium sp. 26/skk = test: Resistance to biocides: conidial germination; type: cell-based; details: strain 26/skk, indoor Penicillium sp.
Method: as §1, §2, §3

Ch. globosum C22/LM = test: Resistance to biocides: ascospore germination; type: cell-based, Chaetomium globosum; details: strain C22/LM, indoor Ch. globosum
Method: as §1, §2, §3

[19] = Chaetomium globosum, read-out: EC50

Measured: EC50

O=BOB(O)OB(O)OB=O [Borax, sodium tetraborate]
> 5000 µg/mL: Penicillium sp. Vaip/skk; read-out: EC50 | Penicillium sp. 20b/skk; SP.20B/SKK, read-out: EC50 | Penicillium sp. 26/skk; SP.26/SKK, read-out: EC50 | Ch. globosum C22/LM; [19]
≥ 5000 µg/mL: [3]; read-out: EC50 | [4]; read-out: EC50 | [9]; read-out: EC50 | [11]; read-out: EC50 | [16]; read-out: EC50 | [17]; read-out: EC50
2500 µg/mL: [6]; FLAVI7D, read-out: EC50 | [10]; read-out: EC50 | Penicillium sp. HJ2; read-out: EC50 | Penicillium sp. 5/skk; SP.5/SKK, read-out: EC50
1200 µg/mL: [5]; read-out: EC50 | [7]; read-out: EC50 | [8]; read-out: EC50 | [12]; read-out: EC50 | [18]; read-out: EC50
5000 µg/mL: [1]; read-out: EC50 | [2]; read-out: EC50 | Penicillium sp. 35/skk; SP.35/SKK, read-out: EC50 | [13]; read-out: EC50 | [14]; read-out: EC50 | [15]; read-out: EC50

polyhexamethylene biguanide hydrochloride [PHMB]
60 µg/mL: [2] | [9] | [10] | [13] | [14] | [15]
1 µg/mL: Penicillium sp. HJ2
8 µg/mL: [1] | Penicillium sp. Vaip/skk | [7] | Penicillium sp. 5/skk | Ch. globosum C22/LM
2 µg/mL: [5] | [18]
30 µg/mL: [3] | [4] | Penicillium sp. 35/skk | Penicillium sp. 20b/skk | [11] | [16] | [17] | Penicillium sp. 26/skk
120 µg/mL: [6]
4 µg/mL: [8] | [12]

OCCOc1ccccc1 [Phenoxy-ethanol, phenoxyethanol]
3200 µg/mL: [1]; read-out: EC50
400 µg/mL: [13]; read-out: EC50
800 µg/mL: [2]; read-out: EC50 | Penicillium sp. Vaip/skk; read-out: EC50 | Penicillium sp. HJ2; read-out: EC50
1500 µg/mL: [5]; read-out: EC50 | [6]; FLAVI7D, read-out: EC50 | [7]; read-out: EC50 | Penicillium sp. 20b/skk; SP.20B/SKK, read-out: EC50 | [10]; read-out: EC50 | Penicillium sp. 5/skk; SP.5/SKK, read-out: EC50 | [12]; read-out: EC50 | [14]; read-out: EC50 | [15]; read-out: EC50 | [18]; read-out: EC50 | Ch. globosum C22/LM; [19]
3000 µg/mL: [3]; read-out: EC50 | [4]; read-out: EC50 | [8]; read-out: EC50 | [9]; read-out: EC50 | [11]; read-out: EC50 | [16]; read-out: EC50 | [17]; read-out: EC50 | Penicillium sp. 26/skk; SP.26/SKK, read-out: EC50
350 µg/mL: Penicillium sp. 35/skk; SP.35/SKK, read-out: EC50

NCl [Chloramine, chloramine]
2500 µg/mL: [7] | Ch. globosum C22/LM
600 µg/mL: [2] | Penicillium sp. Vaip/skk | [6] | Penicillium sp. 35/skk | Penicillium sp. 20b/skk | [10] | Penicillium sp. 5/skk | [14] | [15] | Penicillium sp. 26/skk

Oc1cc(Cl)ccc1Oc1ccc(Cl)cc1Cl [Triclosan, 5-Chloro-2-(2,4-dichlorophenoxy)phenol]
8 µg/mL: [5]; read-out: EC50 | [6]; FLAVI7D, read-out: EC50 | Penicillium sp. HJ2; read-out: EC50
4 µg/mL: Penicillium sp. Vaip/skk; read-out: EC50 | [11]; read-out: EC50 | [16]; read-out: EC50 | Ch. globosum C22/LM; [19]
16 µg/mL: [1]; read-out: EC50 | [2]; read-out: EC50 | [7]; read-out: EC50 | [9]; read-out: EC50 | [10]; read-out: EC50 | [12]; read-out: EC50 | [13]; read-out: EC50 | [14]; read-out: EC50 | [15]; read-out: EC50 | [17]; read-out: EC50 | [18]; read-out: EC50
2 µg/mL: Penicillium sp. 20b/skk; SP.20B/SKK, read-out: EC50 | Penicillium sp. 5/skk; SP.5/SKK, read-out: EC50
30 µg/mL: [3]; read-out: EC50 | [4]; read-out: EC50 | [8]; read-out: EC50 | Penicillium sp. 26/skk; SP.26/SKK, read-out: EC50
